Laboratory results from PMC3912015, “Synthetic Multivalent Antifungal Peptides Effective against Fungi” (PLoS ONE, 2014).
Values after ≈ are worked out from the molar mass of the structure shown. Where two headings read alike, the source gives them in different places.

What was measured:
C. albicans ATCC10231 = test: microbe, parasite or virus in culture; format: cell-based; conditions: Candida albicans
Protocol: (§1) The yeast strains were cultivated and suspended in Sabouraud’s Dextrose (SD) broth diluted to one sixth at a starting OD600 = ∼0.08 in a flat-bottomed microtitre plate. A serial dilution of peptide in the same broth was mixed with the inoculum to give a final peptide concentration of 0.4–22 µM. The antifungal activity was assessed by monitoring the OD600 in cycles of 30 minutes and an orbital shaking at 100 rpm using an Infinite M200 microplate reader (Tecan Group Ltd., Switzerland) for 24/48 h at 37°C. Cultures without peptides were used as positive controls and broth alone or with 22 µM peptide served as negative controls. The minimum concentration required for complete inhibition was assessed by both visible observations as well as by measuring the OD600 and taken as the MIC. Each experiment was repeated in triplicates. For studying the effects of metal ions, SD broth was adjusted with appropriate concentrations of salts to yield a final concentration of 100 and 135 mM for NaCl and KCl and 0.5–2 mM for CaCl2 and MgCl2. MIC determinations were carried out as described above. C. albicans ATCC10231 cells and salts in broth were taken as a positive control. Salts alone (NaCl, KCl, and CaCl2 and MgCl2) in broth or with 22 µM peptide served as a negative control. The effect of 5% human serum on the activities of B4010 against two C. albicans clinical isolates was determined. The human male serum was centrifuged at 13,000 rpm for 10 mins in order to remove the lipids and the supernatant was collected. The MIC values against clinical isolates of C. albicans 2672R and C. albicans 1976R were determined both in standard medium (SD broth) as well as in standard medium containing 5% serum supernatant as before.

C. albicans ATCC2091 = test: microbe, parasite or virus in culture; format: cell-based; conditions: Candida albicans
Protocol: as §1

C. albicans ATCC24433 = test: microbe, parasite or virus in culture; format: cell-based; conditions: Candida albicans
Protocol: as §1

C. albicans DF1976R = test: microbe, parasite or virus in culture; format: cell-based; conditions: Candida albicans
Protocol: as §1

C. albicans DF2672R [1] = test: microbe, parasite or virus in culture; format: cell-based; conditions: Candida albicans
Protocol: as §1

F. solani ATCC36031 = test: microbe, parasite or virus in culture; format: cell-based; conditions: Fusarium solani; F. solani ATCC36031
F. solani DM3782 = test: microbe, parasite or virus in culture; format: cell-based; conditions: Fusarium solani; F. solani DM3782
F. solani DF1500 = test: microbe, parasite or virus in culture; format: cell-based; conditions: Fusarium solani; F. solani DF1500
[2] = system: clinical isolates of C. albicans 2672R and C. albicans 1976R; test: MIC against two clinical isolates, with or without 5% human serum; format: cell-based; conditions: Candida albicans; standard medium without serum
Protocol: as §1

C. albicans ATCC 10231 = test: Time-kill kinetics assay; format: cell-based; conditions: 16× MIC
Protocol: (§2) The time-kill kinetics of B4010 was determined against two strains of C. albicans (ATCC 10231 and DF2672R). The cultures were grown overnight in SD broth and the cell concentration was adjusted to 10^5–10^6 CFU/mL with phosphate buffer. The peptide or antifungals were added to the individual cultures. […] The test solution was incubated at 37°C with constant shaking. 100 µL of the suspension was withdrawn at predetermined time points, serially diluted (10^2 or 10^3 fold) and poured into the SDA plate. The plate was incubated for 48 h at 37°C for colony counting. The data were expressed in terms of % fungal viability relative to the positive control.

C. albicans DF2672R [3] = test: Time-kill kinetics assay; format: cell-based
Protocol: as §2

rabbit red blood cells = test: Haemolytic assay; format: cell-based; conditions: 4% rabbit erythrocytes, 1 h
Protocol: Haemolytic activity of peptides and antifungal drugs were determined against rabbit red blood cells. Briefly, serial dilution of peptides/antifungals in PBS was mixed with rRBC (final concentration 4% v/v), incubated at 37°C for 1 h and centrifuged at 3000 rpm for 10 minutes. The release of hemoglobin in the supernatant was monitored by measuring the hemoglobin absorbance at 576 nm. The readings from cell suspension in PBS (without any additives) or 1% Triton-X100 were used as 0% or 100% haemolysis.

[4] = system: human conjunctival epithelial cells (IOBA-NHC); test: cells; format: cell-based; conditions: Homo sapiens, Epithelial cell, 24 h, 24 h exposure; read-out: EC50 (effective concentration required to kill 50% of human conjunctival epithelial cells)
Protocol: Immortalized normal human conjunctival epithelial cells (IOBANHC) were a gift from Yolanda Diebold at the University of Valladolid, Spain [31]. IOBA-NHC cells were cultured under standard conditions (humidified atmosphere of 5% CO2 at 37°C) in DMEM/F12 supplemented with 1 µg/ml bovine pancreas insulin, 2 ng/ml mouse epidermal growth factor, 0.1 µg/ml cholera toxin, 5 µg/ml hydrocortisone, 10% fetal bovine serum (FBS), 50 UI/ml penicillin, and 50 UI/ml streptomycin. Cells from passages 50–80 were used in all experiments. Every day, normal culture development was observed by phase-contrast microscopy. Cells were removed by gentle trypsin incubation at confluence and counted. They were seeded into 96 well culture plates (Corning, Schiphol-Rijk, The Netherlands) for microtitration analysis of flow cytotoxicity assay (∼10,000 cells/well). Cultures were kept at 37°C for 24 h. Subconfluent cells (culture surface covering nearly 70%) were then exposed to various peptide concentrations (0.22–225 µM). Cytotoxicity was measured periodically using MultiTox-Fluor Multiplex assay kit (Promega, WI, USA) by measuring the AFC fluorescence (λex = 485 and λem = 520 nm). We report the cell viability after 24 h incubation of the cells with the peptides since there was no detectable toxicity even after 8 h of incubation.

[5] = format: biochemical
Protocol: Small unilamellar vesicles (SUVs) were prepared using PC/PE/PI or PS lipids (5∶2.5∶2.5) containing 15 wt% ergosterol or PC/Cholesterol (10∶1). For the preparation of PC/PE/PI or PS/Erg SUV, the lipids were dissolved in chloroform/methanol (2∶1, v/v) in a glass tube. Ergosterol was dissolved in same solvent and added to lipid mixture to make final ergosterol content of 15 wt%. The Lipid-ergosterol mixture was dried using nitrogen gas to form lipid layer. The film was hydrated in a buffer containing 20 mM PBS (pH 7), vortexed and sonicated. Each cycle of sonication (5 sec, 40°C) was followed by freezing in liquid nitrogen and thawing on a water bath kept at 37°C. The procedure was repeated 5–6 times until an optically clear dispersion appeared. The SUV was divided into two parts. To the first part 50 mM calcein was added and incubated for 1 h. The excess calcein was removed by injecting 100 µL of the calcien-loaded SUV’s into a Ultrahydrogel™ 250 (7.8 mm × 300 mm) column equilibrated with 20 mM PBS (pH 7.0) and eluted isochratically at a flow rate of 1 mL/min for 1.5 column volumes. The calcein-loaded liposomes were mixed with calcein-free liposome (1∶1) to adjust final liposome concentration. Peptide concentration was added to obtain 1∶30 or 1∶15 peptide:liposome ratio. Changes in the fluorescence signal after addition of peptide or Triton X-100 was measured on a PTI spectrofluorometer, using an excitation wavelength of 480 nm and emission wavelength of 512 nm. The Percentage calcein released at each time point was calculated using the equation, [drawing 1]
Where A0 is the observed fluorescence intensity upon addition of peptides, Amin is the average intensity at the baseline (before peptide addition), Amax is the average intensity at the saturation phase after adding 1% Triton X-100. Similar protocol was followed for the preparation of PC/Cholesterol SUVs.

[6] = Isothermal titration calorimetry; format: binding; conditions: PC SUVs, 15% ergosterol, 25°C
Protocol: ITC experiments were performed using a Microcal VP-ITC Calorimeter (Microcal, Northampton, MA, USA). SUVs, B4010, and polyene antifungals were dissolved in 10 mM HEPES buffered saline at pH 7.2. […] A total of 40 injections were performed and the heat of reaction produced by each injection was determined by integration of heat flow traces. In a separate experiment, the heat of dilution was determined by titrating SUVs into the buffer solution (without peptide). The heat of dilution was subtracted from the heat changes determined in the peptide/antifungal-liposome experiments.

[7] = ATCC10231, Table 3, read-out: MIC in µM against Ca 10231
[8] = ATCC2091, Table 3, read-out: MIC in µM against Ca 2091
[9] = ATCC24433, Table 3, read-out: MIC in µM against Ca 24433
[10] = DF1976R, Table 3, read-out: MIC in µM against Ca DF1976R
[11] = DF2672R, Table 3, read-out: MIC in µM against Ca 2672R

| MIC (C. albicans ATCC10231; [7]) [µM] | MIC (C. albicans ATCC2091; [8]) [µM] | MIC (C. albicans ATCC24433; [9]) [µM] | MIC (C. albicans DF1976R; [10]) [µM] | MIC (C. albicans DF2672R [1]; [11]) [µM] | MIC [2] [µM] | % Calcein released from PC/PE/PS/Erg [5] [%] | SMILES | HC50 (rabbit red blood cells) [µM] | EC50 [4] [µM] | also measured |
| --- | --- | --- | --- | --- | --- | --- | --- | --- | --- | --- |
| 15 (≈ 9.99 µg/mL) | 7.5 (≈ 4.99 µg/mL) | 15 (≈ 9.99 µg/mL) | 15 (≈ 9.99 µg/mL) | 15 (≈ 9.99 µg/mL) | 15 (≈ 9.99 µg/mL) | 0 | C[C@@H]1C/C=C/C=C/C=C/C=C/[C@H](O[C@@H]2O[C@H](C)[C@@H](O)[C@H](N)[C@@H]2O)C[C@@H]2O[C@](O)(C[C@@H](O)C[C@H]3O[C@@H]3/C=C/C(=O)O1)C[C@H](O)[C@H]2C(=O)O [Natamycin, reference compound] | 139.6 ± 0.18 | 212 ± 20.5 | MIC (C. albicans ATCC10231; C. albicans ATCC10231, read-out: MIC): 15 µM (≈ 9.99 µg/mL); MIC (C. albicans ATCC2091; C. albicans ATCC2091, read-out: MIC): 7.5 µM (≈ 4.99 µg/mL); MIC (C. albicans ATCC24433; C. albicans ATCC24433, read-out: MIC): 15 µM (≈ 9.99 µg/mL); MIC (C. albicans DF1976R; C. albicans DF1976R, read-out: MIC): 15 µM (≈ 9.99 µg/mL); MIC (C. albicans DF2672R [1]; C. albicans DF2672R, read-out: MIC): 15 µM (≈ 9.99 µg/mL); MIC (F. solani ATCC36031): 4.7 µM (≈ 3.13 µg/mL); MIC (F. solani DM3782): 2.4 µM (≈ 1.6 µg/mL); MIC (F. solani DF1500): 2.4 µM (≈ 1.6 µg/mL); time required to achieve similar endpoints (4 log reduction) (C. albicans ATCC 10231): 24 h; fungicidal action (C. albicans DF2672R [3]; 2× MIC, 24 h exposure): no fungicidal action |
| 1.35 (≈ 1.25 µg/mL) | < 0.4 | 1.35 (≈ 1.25 µg/mL) | 1.35 (≈ 1.25 µg/mL) | 1.35 (≈ 1.25 µg/mL) | 1.4 (≈ 1.29 µg/mL) | 0 | C[C@@H]1[C@H](O)[C@@H](C)/C=C/C=C/C=C/C=C/C=C/C=C/C=C/[C@H](O[C@@H]2O[C@H](C)[C@@H](O)[C@H](N)[C@@H]2O)C[C@@H]2O[C@](O)(C[C@@H](O)C[C@@H](O)[C@H](O)CC[C@@H](O)C[C@@H](O)CC(=O)O[C@H]1C)C[C@H](O)[C@H]2C(=O)O [Amphotericin B, reference compound] | 59.4 ± 7.8 | 134 ± 16 | time to maximal effect (C. albicans DF2672R [3]; 16× MIC): less than 8 h; affinity for membrane bound ergosterol (ITC) [6]: strong affinity |
